In data set [1] the target is Urokinase-type plasminogen activator (Homo sapiens, UniProt P00749). The data set can be described thus: Inhibition of uPA.
The target in another data set is Plasminogen (Homo sapiens, UniProt P00747). The data set can be described thus: Inhibition of plasmin.
In data set [2] the target is Tissue-type plasminogen activator (Homo sapiens, UniProt P00750). The data set is described as follows: Inhibition of tPA.
The nature of data set [3]: Cmax in rat. Format: ADME, organism-based. The settings on record: in vivo.
Data set [4] is described as follows: Half life in rat. It counts as ADME, organism-based. The settings on record: in vivo.
Data set [5] can be described thus: Clearance in rat. Format: ADME, organism-based. The settings on record: in vivo.
Data set [6] can be described thus: Oral bioavailability in rat. Format: ADME, organism-based. Conditions: in vivo.
The nature of data set [7]: Volume of distribution in rat. Format: ADME, organism-based. Conditions: in vivo.

Plasminogen, sequence (P00747 97-580 limits assumed): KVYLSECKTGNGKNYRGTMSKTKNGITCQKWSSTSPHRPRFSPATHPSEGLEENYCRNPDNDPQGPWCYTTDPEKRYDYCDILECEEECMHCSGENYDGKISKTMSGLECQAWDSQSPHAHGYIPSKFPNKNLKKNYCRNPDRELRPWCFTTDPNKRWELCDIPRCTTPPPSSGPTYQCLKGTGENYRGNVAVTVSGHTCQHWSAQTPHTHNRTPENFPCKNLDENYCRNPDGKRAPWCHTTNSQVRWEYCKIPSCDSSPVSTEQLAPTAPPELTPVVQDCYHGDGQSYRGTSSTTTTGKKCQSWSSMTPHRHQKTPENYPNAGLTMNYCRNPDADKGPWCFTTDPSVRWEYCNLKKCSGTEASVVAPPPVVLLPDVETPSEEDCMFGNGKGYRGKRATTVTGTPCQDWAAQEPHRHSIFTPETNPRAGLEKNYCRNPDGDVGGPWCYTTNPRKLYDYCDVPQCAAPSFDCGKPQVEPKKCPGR
Plasminogen, sequence (P00747 581-810 limits assumed): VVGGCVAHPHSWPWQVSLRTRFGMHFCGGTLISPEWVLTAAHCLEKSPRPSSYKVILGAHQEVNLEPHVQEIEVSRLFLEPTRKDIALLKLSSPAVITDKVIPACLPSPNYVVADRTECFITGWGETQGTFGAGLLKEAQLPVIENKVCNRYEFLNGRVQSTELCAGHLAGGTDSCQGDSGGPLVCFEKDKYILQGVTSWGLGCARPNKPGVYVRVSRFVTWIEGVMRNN
Tissue-type plasminogen activator, sequence (P00750 whole entry): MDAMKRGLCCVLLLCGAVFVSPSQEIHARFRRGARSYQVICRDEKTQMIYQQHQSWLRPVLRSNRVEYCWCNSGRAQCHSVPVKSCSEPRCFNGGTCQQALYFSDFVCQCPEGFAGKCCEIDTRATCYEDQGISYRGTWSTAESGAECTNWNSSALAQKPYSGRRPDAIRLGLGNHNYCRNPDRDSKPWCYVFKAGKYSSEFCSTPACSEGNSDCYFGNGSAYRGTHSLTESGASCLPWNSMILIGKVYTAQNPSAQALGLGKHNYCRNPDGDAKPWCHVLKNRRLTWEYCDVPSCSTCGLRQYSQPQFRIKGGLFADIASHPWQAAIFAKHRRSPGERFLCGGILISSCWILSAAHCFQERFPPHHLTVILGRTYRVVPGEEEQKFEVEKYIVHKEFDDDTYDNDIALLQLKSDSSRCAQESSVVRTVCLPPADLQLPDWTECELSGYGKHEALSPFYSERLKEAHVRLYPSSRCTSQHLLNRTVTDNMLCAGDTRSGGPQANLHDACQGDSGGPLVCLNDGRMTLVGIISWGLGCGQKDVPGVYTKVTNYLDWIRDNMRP

For `Cc1cccc(C(=O)O)c1Oc1nc(Oc2cccc(-c3cccc(CN)c3)c2)c(F)cc1F`, the concentration for half-maximal inhibition (IC50) was 0.54 µM in data set [1] and 8.6 µM at Plasminogen.

In data set [1], `Cc1ccc(-n2cnnn2)c(Oc2nc(Oc3cccc(-c4cccc(CN)c4)c3)c(F)cc2F)c1` came in with an IC50 of 13 µM.

In turn, `NCc1cccc(-c2cccc(Oc3nc(Oc4cc([N+](=O)[O-])ccc4C(=O)O)c(F)cc3F)c2)c1` gave an IC50 in data set [1] of 1.3 µM.

In the case of `Cc1ccc(C(=O)O)c(Oc2nc(Oc3cc(CN)cc(-c4cccc(CN)c4)c3)c(F)cc2F)c1`, the IC50 (in data set [1]; on Plasminogen) was 2.7 µM each time.

As to `Cc1ccc(C(=O)O)c(Oc2nc(Oc3cc(N)cc(-c4cccc(CN)c4)c3)c(F)c(N3CCC(N(C)C)C3)c2F)c1` (stereo unspecified), the IC50 in data set [1] amounted to 0.015 µM; in data set [2], 8.5 µM; at Plasminogen, 3 µM.

On to `COc1ccc(C(=O)O)c(Oc2nc(Oc3cccc(-c4cccc(CN)c4)c3)c(F)cc2F)c1`, for which the IC50 was 0.22 µM in data set [1], greater than 30 µM in data set [2] and 9.4 µM at Plasminogen.

`Cc1ccc(Oc2nc(Oc3cccc(-c4cccc(CN)c4)c3)c(F)cc2F)c(C(=O)O)c1` had an IC50 in data set [1] of 3.5 µM.

Take `CNc1c(F)c(Oc2cccc(-c3cccc(CN)c3)c2)nc(Oc2cc(N(C)C)ccc2C(=O)O)c1F`: the figures for the IC50 (in data set [1]; in data set [2]; against Plasminogen) were 0.13 µM, 16 µM and 3.6 µM, respectively.

On to `Cc1ccc(C(=O)O)c(Oc2nc(Oc3cc(N)cc(-c4cccc(CN)c4)c3)c(F)cc2F)c1`, for which the IC50 in data set [1] is 0.039 µM; in data set [2], greater than 30 µM; on Plasminogen, 5 µM. Also, the Cmax in data set [3] stood at 59 ng/mL. Moreover, the half-life in data set [4] is 15.6 min. The same molecule had a clearance in data set [5] of 257 mL/min/kg. For the same molecule, the bioavailability in data set [6] was 18%. Further, the Vd in data set [7] turned out to be 4.6 L/kg.

Take `Cc1ccc(C(=O)O)c(Oc2nc(Oc3cccc(-c4cccc(CN)c4)c3)c(F)cc2F)c1`: the IC50 in data set [1] is 0.24 µM; in data set [2], 22 µM; against Plasminogen it was 5 µM. The same molecule came in with a Cmax in data set [3] of 220 ng/mL. Moreover, the half-life in data set [4] was 30 min. This molecule yielded a clearance in data set [5] of 54 mL/min/kg. For the same molecule, the bioavailability in data set [6] worked out at 37%. In data set [7], this molecule returned a Vd of 0.7 L/kg.

Molecule `NCc1cccc(-c2cccc(Oc3nc(Oc4ccccc4CC(=O)O)c(F)cc3F)c2)c1` gave an IC50 in data set [1] of 8.1 µM. In other words, the single-digit micromolar range.

Regarding `CN(C)c1ccc(C(=O)O)c(Oc2nc(Oc3cccc(-c4cccc(CN)c4)c3)c(F)c(N(C)C)c2F)c1`, the IC50 is 0.53 µM in data set [1], greater than 30 µM in data set [2] and 2.9 µM against Plasminogen.

On to `CNCc1cccc(-c2cccc(Oc3nc(Oc4cc(N(C)C)ccc4C(=O)O)c(F)cc3F)c2)c1`, for which the IC50 in data set [1] was greater than 30 µM.

Regarding `CC(C)c1ccc(C(=O)O)c(Oc2nc(Oc3cccc(-c4cccc(CN)c4)c3)c(F)cc2F)c1`, the IC50 in data set [1] is 0.68 µM; against Plasminogen it was 2.8 µM.

As for `CN(C)CCN(C)c1c(F)c(Oc2cccc(-c3cccc(CN)c3)c2)nc(Oc2cc(N(C)C)ccc2C(=O)O)c1F`, the IC50 was determined as 0.1 µM in data set [1], 28 µM in data set [2] and 6.3 µM on Plasminogen.

Take `CN(C)c1ccc(C(=O)O)c(Oc2nc(Oc3cccc(-c4ccc(CN)cc4)c3)c(F)cc2F)c1`: in data set [1], the IC50 is greater than 30 µM.

`Cc1ccc(C(=O)O)c(Oc2nc(Oc3ccc(N)c(-c4cccc(CN)c4)c3)c(F)cc2F)c1` came in with an IC50 in data set [1] greater than 30 µM.

In the case of `NCc1cccc(-c2cccc(Oc3nc(Oc4ccccc4CCC(=O)O)c(F)cc3F)c2)c1`, the IC50 in data set [1] was greater than 30 µM.

Turning to `NCc1cccc(-c2cccc(Oc3nc(Oc4ccccc4C(=O)O)c(F)cc3F)c2)c1`, the IC50 was 0.84 µM in data set [1], greater than 30 µM in data set [2] and 21 µM against Plasminogen.

For the molecule `CN(C)c1ccc(C(=O)O)c(Oc2nc(Oc3cccc(-c4cccc(CN)c4)c3)c(F)cc2F)c1`, the IC50 in data set [1] was 0.1 µM; in data set [2], 18 µM; against Plasminogen, 6.5 µM. This molecule also came in with a Cmax in data set [3] of 33 ng/mL. The molecule also showed a half-life in data set [4] of 30 min. The molecule further registered a clearance in data set [5] of 26 mL/min/kg. The bioavailability in data set [6] was found to be 9%. In data set [7], this molecule showed a Vd of 1.15 L/kg.

For `Cc1c(F)c(Oc2cccc(-c3cccc(C(=N)N)c3)c2)nc(Oc2cc(N(C)C)ccc2C(=O)O)c1F`, the IC50 is 0.098 µM in data set [1], 3.9 µM in data set [2] and 2.1 µM against Plasminogen.

Consider `CN(C)c1ccc(C(=O)O)c(Oc2nc(Oc3cccc(-c4cccc(CN)c4)c3)c(F)c(N3CCOCC3)c2F)c1`, for which the concentration for half-maximal inhibition (IC50) in data set [1] was 0.9 µM; in data set [2], 10 µM; against Plasminogen, 2.1 µM.

In data set [1], `NCc1cccc(-c2cccc(Oc3nc(Oc4cccc(C(=O)O)c4)c(F)cc3F)c2)c1` came in with an IC50 of 20 µM.

As to `CN(C)Cc1cccc(-c2cccc(Oc3nc(Oc4cc(N(C)C)ccc4C(=O)O)c(F)cc3F)c2)c1`, the IC50 in data set [1] is greater than 30 µM.

`Cc1ccc(C(=O)O)c(Oc2nc(Oc3cc(O)cc(-c4cccc(CN)c4)c3)c(F)cc2F)c1`: the IC50 amounted to 0.023 µM in data set [1], 14 µM in data set [2] and 5.5 µM on Plasminogen.

For `Cc1ccc(C(=O)O)c(Oc2nc(Oc3cc(-c4cccc(CN)c4)ccc3N)c(F)cc2F)c1`, the IC50 in data set [1] came out at 0.089 µM; in data set [2], 15 µM; against Plasminogen, 11 µM.

The molecule `NCc1cccc(-c2cccc(Oc3nc(Oc4ccc(C(=O)O)cc4)c(F)cc3F)c2)c1` yielded an IC50 in data set [1] greater than 30 µM.

Take `CN(C)c1ccc(C(=O)O)c(Oc2nc(Oc3cccc(-c4cccc(CN)c4)c3)c(F)c(N3CCC(N(C)C)C3)c2F)c1` (stereo unspecified): the figures for the IC50 (in data set [2]; against Plasminogen) were 5.2 µM and 1.9 µM, respectively. The half-life in data set [4] is 276 min. The molecule also yielded a clearance in data set [5] of 5 mL/min/kg. The same molecule displayed a bioavailability in data set [6] of 0%. This molecule also showed a Vd in data set [7] of 1 L/kg.

`Cc1cccc(Oc2nc(Oc3cccc(-c4cccc(CN)c4)c3)c(F)cc2F)c1C(=O)O` yielded a concentration for half-maximal inhibition (IC50) in data set [1] of 26 µM.

As to `CN(C)c1ccc(C(=O)O)c(Oc2nc(Oc3cccc(-c4cccc(CN)c4)c3)c(F)c(N3CCNCC3)c2F)c1`, the IC50 in data set [1] came out at 0.065 µM; in data set [2] it was 11 µM; on Plasminogen it was 4.4 µM.

A word on the IC50: it is the point on the concentration scale where inhibition reaches its midpoint. A lower IC50 goes with greater potency in that assay. The Cmax is the highest concentration seen after dosing. The term half-life denotes the time needed for the level to fall by half in the phase considered. A low value points to fast loss. In general, clearance refers to the volume of plasma or blood freed of the substance per unit of time. The term bioavailability denotes the share of a dose that reaches the circulation, judged against a reference dose that is usually intravenous. Higher therefore signals much systemic uptake. What is called Vd is the apparent volume that relates the amount in the body to the concentration in plasma or blood. A low value points to confinement near the circulation.

(Values after ChEMBL document CHEMBL1156011, “Identification of orally bioavailable, non-amidine inhibitors of Urokinase Plasminogen Activator (uPA)” (Bioorg Med Chem Lett, 2009).)
